Data: US6642237B1, “Gamma-hydroxy-2-(fluoroalkylaminocarbonyl)-1-piperazinepentanamides and uses thereof” (Merck & Co., Inc., priority 1999, dated 2003)

Legend:
[1] = tested on: HIV-1 viral constructs Q60, K-60, and V-18 in MT-4 T-lymphoid cells; format: cell-based; conditions: concentration reducing spread of infection by at least 95%; MT-4 cells, 4 days postinfection
Method: Inhibition of the spread of HIV in cell culture was measured according to Nunberg et al., J. Virol. […] In this assay, MT-4 T-lymphoid cells were infected with HIV-1 (wild-type, unless otherwise indicated) by using a predetermined inoculum, and cultures were incubated for 24 h. At this time, ≦1% of the cells were positive by indirect immunofluorescence. Cells were then extensively washed and distributed into 96-well culture dishes. Serial twofold dilutions of inhibitor were added to the wells, and cultures were continued for 3 additional days. At 4 days postinfection, 100% of the cells in control cultures were infected. HIV-1 p24 accumulation was directly correlated with virus spread. The cell culture inhibitory concentration was defined as the inhibitor concentration in nanomoles/liter which reduced the spread of infection by at least 95%, or CIC95.

HIV = conditions: HIV-infected patients; in combination with nucleoside reverse transcriptase inhibitors; cited from earlier work

CC(C)(C)NC(=O)[C@@H]1CN(Cc2cccnc2)CCN1C[C@@H](O)C[C@@H](Cc1ccccc1)C(=O)N[C@H]1c2ccccc2C[C@H]1O [indinavir]
CIC95 against the viral constructs Q60, K-60, and V-18 [1]: greater than 1000 nM
reducing HIV viral loads and increasing CD4 cell counts (HIV): highly effective
